Data reported in ChEMBL document CHEMBL4308888, “Discovery of novel pyruvate dehydrogenase kinases inhibitors by screening of an in-house small molecule library for anti-lung cancer therapeutics” (Bioorg Med Chem Lett, 2019).
Active and inactive are the calls of the source. The rule behind the calls is not given here.

What was measured:
[1] = tested on: NCI-H1975; experiment: Antiproliferative activity against human NCI-H1975 cells assessed as reduction in cell viability at 20 mM after 72 hrs by MTT assay; assay type: functional, cell-based
[2] = tested on: NCI-H1650; experiment: Antiproliferative activity against human NCI-H1650 cells assessed as reduction in cell viability after 72 hrs by MTT assay; assay type: functional, cell-based; settings: NCI-H1650, 72 h
[3] = molecular target: T1, [Pyruvate dehydrogenase (acetyl-transferring)] kinase isozyme 1, mitochondrial (Homo sapiens, UniProt Q15118); settings: 10 mM
Description: Inhibition of PDK1 (unknown origin) at 10 mM using PDH E1 as substrate measured after 30 mins by kinase-glo assay relative to control

[4] = molecular target: T1, [Pyruvate dehydrogenase (acetyl-transferring)] kinase isozyme 1, mitochondrial; experiment: Inhibition of PDK1 (unknown origin) at 10 uM using PDH E1 as substrate measured after 30 mins by kinase-glo assay relative to control
[5] = molecular target: T1, [Pyruvate dehydrogenase (acetyl-transferring)] kinase isozyme 1, mitochondrial; experiment: Inhibition of PDK1 (unknown origin) using PDH E1 as substrate measured after 30 mins by kinase-glo assay
[6] = molecular target: T1, [Pyruvate dehydrogenase (acetyl-transferring)] kinase isozyme 1, mitochondrial; experiment: Potency index, ratio of DCA EC50 to test compound EC50 for inhibition of PDK1 (unknown origin)
[7] = molecular target: T1, [Pyruvate dehydrogenase (acetyl-transferring)] kinase isozyme 1, mitochondrial; experiment: Binding affinity to SUMO-fused/His-tagged PDK1 (unknown origin) expressed in Escherichia coli by isothermal calorimetric titration analysis
[8] = molecular target: [Pyruvate dehydrogenase (acetyl-transferring)] kinase isozyme 2, mitochondrial (Homo sapiens, UniProt Q15119); experiment: Binding affinity to SUMO-fused/His-tagged PDK2 (unknown origin) expressed in Escherichia coli by isothermal calorimetric titration analysis
[9] = molecular target: [Pyruvate dehydrogenase (acetyl-transferring)] kinase isozyme 3, mitochondrial (Homo sapiens, UniProt Q15120); experiment: Binding affinity to SUMO-fused/His-tagged PDK3 (unknown origin) expressed in Escherichia coli by isothermal calorimetric titration analysis
[10] = molecular target: T2, Pyruvate dehydrogenase kinase (Homo sapiens) (UniProt Q15119+Q15120+Q16654+Q15118); experiment: Inhibition of PDK in human NCI-H1975 cells assessed as reduction in phosphorylated S293 PDC E1 level at 10 uM by ELISA; assay type: cell-based
[11] = tested on: NCI-H1975; experiment: Antiproliferative activity against human NCI-H1975 cells assessed as reduction in cell viability at 10 uM after 72 hrs by MTT assay; assay type: functional, cell-based
[12] = tested on: A549; experiment: cells; settings: Homo sapiens, A549, 72 h
Description: Antiproliferative activity against human A549 cells assessed as reduction in cell viability after 72 hrs by MTT assay

[13] = molecular target: [Pyruvate dehydrogenase (acetyl-transferring)] kinase isozyme 4, mitochondrial (Homo sapiens, UniProt Q16654); experiment: Binding affinity to SUMO-fused/His-tagged PDK4 (unknown origin) expressed in Escherichia coli by isothermal calorimetric titration analysis
[14] = molecular target: T2, Pyruvate dehydrogenase kinase (Homo sapiens); experiment: Inhibition of PDK in human NCI-H1975 cells assessed as reduction in phosphorylated S293 PDC E1 level by ELISA; assay type: cell-based
[15] = molecular target: T2, Pyruvate dehydrogenase kinase (Homo sapiens); experiment: Inhibition of PDK in human NCI-H1975 cells assessed as reduction in phosphorylated S293 PDC E1 level by Western blot analysis; assay type: cell-based
[16] = tested on: MRC5; experiment: Cytotoxicity against human MRC5 cells assessed as reduction in cell viability up to 40 uM after 72 hrs by MTT assay; assay type: cell-based; settings: mrc5, 72 h
[17] = tested on: NCI-H1975; experiment: Antiproliferative activity against human NCI-H1975 cells assessed as reduction in cell viability after 72 hrs by MTT assay; assay type: functional, cell-based; settings: NCI-H1975, 72 h
[18] = molecular target: T2, Pyruvate dehydrogenase kinase (Homo sapiens); experiment: Inhibition of PDK in human NCI-H1975 cells assessed as switch of pyruvate metabolism from lactate production to oxidative phosphorylation by measuring increase in ROS production at 1 to 10 uM measured after 4 hrs by DCFH-DA dye based assay; assay type: cell-based
[19] = molecular target: T2, Pyruvate dehydrogenase kinase (Homo sapiens); experiment: Inhibition of PDK in human NCI-H1975 cells assessed as switch of pyruvate metabolism from lactate production to oxidative phosphorylation by measuring increase in oxygen consumption rate measured after 2 hrs; assay type: cell-based
[20] = molecular target: T2, Pyruvate dehydrogenase kinase (Homo sapiens); experiment: Inhibition of PDK in human NCI-H1975 cells assessed as switch of pyruvate metabolism from lactate production to oxidative phosphorylation by measuring decrease in lactate production at 1 to 10 uM measured after 4 hrs; assay type: cell-based

[Pyruvate dehydrogenase (acetyl-transferring)] kinase isozyme 3, mitochondrial, sequence (Q15120 whole entry, the tested form may be a part): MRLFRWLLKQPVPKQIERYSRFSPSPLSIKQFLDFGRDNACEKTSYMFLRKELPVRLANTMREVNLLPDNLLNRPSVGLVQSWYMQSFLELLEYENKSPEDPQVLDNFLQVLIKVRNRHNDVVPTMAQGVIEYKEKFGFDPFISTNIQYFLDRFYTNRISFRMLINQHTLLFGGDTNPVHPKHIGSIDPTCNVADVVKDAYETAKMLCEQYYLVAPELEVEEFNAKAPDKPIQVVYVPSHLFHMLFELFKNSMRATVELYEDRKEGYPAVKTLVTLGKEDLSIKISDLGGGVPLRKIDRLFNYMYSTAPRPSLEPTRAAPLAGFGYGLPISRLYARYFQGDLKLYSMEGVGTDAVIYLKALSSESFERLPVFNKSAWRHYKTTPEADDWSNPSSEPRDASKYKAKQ
T1 sequence (Q15118 whole entry): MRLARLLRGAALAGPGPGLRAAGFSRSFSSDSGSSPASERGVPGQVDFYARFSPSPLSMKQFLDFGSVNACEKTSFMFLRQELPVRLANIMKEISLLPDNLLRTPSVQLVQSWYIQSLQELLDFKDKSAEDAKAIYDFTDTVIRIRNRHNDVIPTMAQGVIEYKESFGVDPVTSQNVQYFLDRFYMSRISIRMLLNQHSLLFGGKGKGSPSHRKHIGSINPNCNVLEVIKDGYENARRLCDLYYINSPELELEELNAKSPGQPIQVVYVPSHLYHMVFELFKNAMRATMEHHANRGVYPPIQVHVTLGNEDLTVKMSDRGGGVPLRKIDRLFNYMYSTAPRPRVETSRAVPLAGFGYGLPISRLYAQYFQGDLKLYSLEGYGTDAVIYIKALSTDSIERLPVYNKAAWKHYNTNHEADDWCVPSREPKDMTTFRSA
[Pyruvate dehydrogenase (acetyl-transferring)] kinase isozyme 4, mitochondrial, sequence (Q16654 whole entry, the tested form may be a part): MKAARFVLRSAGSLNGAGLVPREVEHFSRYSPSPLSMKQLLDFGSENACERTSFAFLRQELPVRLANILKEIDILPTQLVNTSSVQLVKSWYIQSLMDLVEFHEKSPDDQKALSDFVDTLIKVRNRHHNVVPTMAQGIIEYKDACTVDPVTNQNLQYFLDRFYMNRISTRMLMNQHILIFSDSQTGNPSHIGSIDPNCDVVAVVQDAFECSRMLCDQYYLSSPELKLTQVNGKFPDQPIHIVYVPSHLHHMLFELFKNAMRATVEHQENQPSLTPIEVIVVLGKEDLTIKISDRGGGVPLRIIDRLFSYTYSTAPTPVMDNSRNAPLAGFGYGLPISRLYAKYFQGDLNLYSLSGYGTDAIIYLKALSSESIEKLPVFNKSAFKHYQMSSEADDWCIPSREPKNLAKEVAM

Compound | Activity [1] | IC50 [2] [µM] | inhibition [3] [%] | inhibition [4] [%] | EC50 [5] [µM] | Ratio EC50 [6] | Kd [7] [µM] | Kd [8] [µM] | Kd [9] [µM] | inhibition [10] | Activity [11] | IC50 [12] [µM] | Kd [13] [µM] | inhibition [14] | inhibition [15] | Activity [16] | IC50 [17] [µM] | inhibition [18] | inhibition [19] | inhibition [20]
O=C([O-])C(Cl)Cl.[Na+] [SODIUM DICHLOROACETATE] | Active | 16300 | 64.2 | – | – | – | – | – | – | – | – | – | – | – | – | – | – | – | – | –
CC(C)=CCN1CCN(Cc2c(C)n(C)n(-c3ccccc3)c2=O)C[C@@H]1CCO | – | – | – | 86.9 | 4.64 | > 1000 | 10.5 | 15.9 | 8.9 | Active | – | – | – | – | – | – | – | – | – | –
O=C(c1ccccc1)C(Cl)Cl | – | 7.9 | – | – | – | – | – | – | – | – | Active | 4.7 | – | – | – | – | – | – | – | –
CCCCN(Cc1ccncc1)C(=O)c1cc(-c2ccccc2O)n[nH]1 | – | – | – | 89.6 | 1.99 | > 1000 | 5.8 | 2.9 | 7.8 | Active | – | – | 10.7 | – | – | – | – | – | – | –
OCCn1nc(C2CCOCC2)nc1[C@@H]1CCCCN1Cc1ccccc1 | – | 7.6 | – | 93.7 | 0.42 | > 1000 | 0.89 | 3.7 | 2.1 | Active | Active | 5.9 | 7.9 | Dose-dependent effect | Dose-dependent effect | Non-Toxic | 3.32 | Active | Dose-dependent effect | Active
CN(Cc1cnc2ccccn12)C(=O)c1cc(COc2ccc3c(c2)OCO3)[nH]n1 | – | 15.7 | – | 95.6 | 0.5 | > 1000 | 1.1 | 2 | 4.7 | Active | Active | 17.8 | 2.6 | Dose-dependent effect | Dose-dependent effect | Non-Toxic | – | – | – | –
